Reference: ChEMBL document CHEMBL4665643 (Bioorg Med Chem Lett, 2019)

How the values were obtained:
[1] = molecular target: T1, Tyrosine-protein kinase JAK1 (Homo sapiens, UniProt P23458); assay: biochemical
Description: Inhibition of recombinant human JAK1 (854 to 1154 residues) expressed in insect cells using Y1-B as substrate incubated for 30 mins by microfluidic mobility shift assay

[2] = molecular target: Tyrosine-protein kinase JAK2 (Homo sapiens, UniProt O60674)
Description: Inhibition of recombinant human JAK2 (812 to 1132 residues) expressed in insect cells using Y1-B as substrate incubated for 30 mins by microfluidic mobility shift assay

[3] = molecular target: Janus Kinase (JAK) (Homo sapiens, UniProt P52333+P23458+O60674+P29597); details: beas-2b
Description: Inhibition of JAK in human BEAS-2B cells assessed as reduction in IL13-induced STAT6 phosphorylation incubated for 1 hr followed by IL13 addition and measured after 15 mins by immunofluorescence assay

[4] = molecular target: T1, Tyrosine-protein kinase JAK1
[5] = molecular target: LRRK2 (Homo sapiens, UniProt Q5S007); assay: Inhibition of recombinant human GST-tagged LRRK2 (970 to 2527 residues) expressed in baculovirus expression system using LRRKtide as substrate at 0.1 uM incubated for 60 mins by Adapta assay relative to control; details: probe LRRKtide
Chain of LRRK2 (Q5S007 whole entry, the tested form may be a part): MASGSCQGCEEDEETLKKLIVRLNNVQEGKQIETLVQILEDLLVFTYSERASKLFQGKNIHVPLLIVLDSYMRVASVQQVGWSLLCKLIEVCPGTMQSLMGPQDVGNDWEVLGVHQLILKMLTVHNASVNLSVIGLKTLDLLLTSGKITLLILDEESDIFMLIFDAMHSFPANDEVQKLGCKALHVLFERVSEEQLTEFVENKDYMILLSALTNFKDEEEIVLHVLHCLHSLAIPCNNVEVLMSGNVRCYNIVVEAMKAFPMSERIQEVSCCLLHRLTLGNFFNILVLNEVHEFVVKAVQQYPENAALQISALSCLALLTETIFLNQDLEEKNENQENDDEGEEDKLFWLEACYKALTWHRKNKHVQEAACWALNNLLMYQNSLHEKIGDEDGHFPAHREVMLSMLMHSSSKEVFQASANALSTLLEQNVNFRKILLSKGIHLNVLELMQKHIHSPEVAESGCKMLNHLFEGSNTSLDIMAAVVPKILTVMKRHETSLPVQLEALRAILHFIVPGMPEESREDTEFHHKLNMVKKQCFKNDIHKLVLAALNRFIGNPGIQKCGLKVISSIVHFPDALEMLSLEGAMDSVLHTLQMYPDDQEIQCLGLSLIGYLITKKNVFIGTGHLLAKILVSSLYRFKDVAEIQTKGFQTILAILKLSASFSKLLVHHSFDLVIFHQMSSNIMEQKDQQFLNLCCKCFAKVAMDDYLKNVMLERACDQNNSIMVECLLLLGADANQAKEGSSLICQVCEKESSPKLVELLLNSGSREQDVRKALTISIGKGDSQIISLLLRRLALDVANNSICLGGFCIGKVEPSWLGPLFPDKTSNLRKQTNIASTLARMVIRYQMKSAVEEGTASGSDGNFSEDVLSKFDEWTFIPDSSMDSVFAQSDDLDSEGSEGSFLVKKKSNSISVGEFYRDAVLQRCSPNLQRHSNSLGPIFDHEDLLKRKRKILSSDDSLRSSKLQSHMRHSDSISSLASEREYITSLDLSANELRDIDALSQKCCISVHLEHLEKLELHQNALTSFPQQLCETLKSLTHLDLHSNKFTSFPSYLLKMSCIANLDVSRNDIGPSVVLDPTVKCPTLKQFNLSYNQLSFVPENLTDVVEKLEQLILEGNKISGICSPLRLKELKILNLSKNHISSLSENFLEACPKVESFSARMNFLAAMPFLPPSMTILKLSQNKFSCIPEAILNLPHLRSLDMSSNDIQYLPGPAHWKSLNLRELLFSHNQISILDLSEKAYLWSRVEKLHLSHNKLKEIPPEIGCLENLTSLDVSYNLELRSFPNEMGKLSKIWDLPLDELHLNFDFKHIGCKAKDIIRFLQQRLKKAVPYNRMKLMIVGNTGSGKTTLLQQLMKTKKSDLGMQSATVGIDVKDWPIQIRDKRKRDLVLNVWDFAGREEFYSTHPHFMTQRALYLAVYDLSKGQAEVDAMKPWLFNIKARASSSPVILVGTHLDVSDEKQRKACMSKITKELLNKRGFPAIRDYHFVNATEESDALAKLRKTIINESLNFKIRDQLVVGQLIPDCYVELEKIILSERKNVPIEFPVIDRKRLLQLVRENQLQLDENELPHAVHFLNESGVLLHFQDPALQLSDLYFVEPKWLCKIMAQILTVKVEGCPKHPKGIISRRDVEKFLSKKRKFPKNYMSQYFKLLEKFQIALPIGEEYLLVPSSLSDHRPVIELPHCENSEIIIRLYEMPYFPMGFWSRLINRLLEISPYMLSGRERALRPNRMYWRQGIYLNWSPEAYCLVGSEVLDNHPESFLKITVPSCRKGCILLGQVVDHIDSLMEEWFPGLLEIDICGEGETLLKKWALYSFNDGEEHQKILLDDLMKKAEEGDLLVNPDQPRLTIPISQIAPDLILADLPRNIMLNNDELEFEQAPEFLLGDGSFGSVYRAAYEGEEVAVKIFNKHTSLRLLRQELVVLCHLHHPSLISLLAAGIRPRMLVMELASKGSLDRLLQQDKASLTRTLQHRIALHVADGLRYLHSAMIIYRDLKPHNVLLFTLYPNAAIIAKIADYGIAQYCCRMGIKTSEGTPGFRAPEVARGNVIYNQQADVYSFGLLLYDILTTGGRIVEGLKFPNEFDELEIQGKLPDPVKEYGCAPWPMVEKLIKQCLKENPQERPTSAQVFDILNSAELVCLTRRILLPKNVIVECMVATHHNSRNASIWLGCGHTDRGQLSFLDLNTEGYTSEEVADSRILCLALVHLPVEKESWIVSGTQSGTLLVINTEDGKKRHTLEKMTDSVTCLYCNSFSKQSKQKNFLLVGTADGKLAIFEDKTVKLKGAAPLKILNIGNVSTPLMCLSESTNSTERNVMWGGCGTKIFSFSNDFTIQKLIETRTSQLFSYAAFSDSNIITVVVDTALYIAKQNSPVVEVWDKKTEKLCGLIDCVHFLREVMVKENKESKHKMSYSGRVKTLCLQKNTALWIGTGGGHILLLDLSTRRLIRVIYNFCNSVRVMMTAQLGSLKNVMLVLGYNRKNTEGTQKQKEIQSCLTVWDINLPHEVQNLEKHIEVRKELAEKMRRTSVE

[6] = organism: Homo sapiens
[7] = Lipophilicity, logD of compound; format: physicochemical; details: octanol/water
[8] = Metabolic stability in human liver microsomes assessed as intrinsic clearance at 1 uM measured upto 60 mins by LC-MS/MS analysis; format: ADME, Microsome; details: read-out: CLH
[9] = in vitro; details: dog, MDCK
Description: Apparent permeability across apical to basolateral side in MDCK cells at 10 uM incubated upto 180 mins by LC/MS-MS analysis

[10] = in vitro; details: dog, MDCK; remark: listed apart in the source
Description: Efflux ratio of apparent permeability basolateral to apical over apical to basolateral side in MDCK cells at 10 uM incubated upto 180 mins by LC/MS-MS analysis

[11] = molecular target: Leucine-rich repeat serine/threonine-protein kinase 2 (Homo sapiens, UniProt Q5S007); assay: Inhibition of recombinant human GST-tagged LRRK2 (970 to 2527 residues) expressed in baculovirus expression system using LRRKtide as substrate incubated for 60 mins by Adapta assay
Chain of Leucine-rich repeat serine/threonine-protein kinase 2 (Q5S007 whole entry, the tested form may be a part): as above

T1 sequence (P23458 whole entry): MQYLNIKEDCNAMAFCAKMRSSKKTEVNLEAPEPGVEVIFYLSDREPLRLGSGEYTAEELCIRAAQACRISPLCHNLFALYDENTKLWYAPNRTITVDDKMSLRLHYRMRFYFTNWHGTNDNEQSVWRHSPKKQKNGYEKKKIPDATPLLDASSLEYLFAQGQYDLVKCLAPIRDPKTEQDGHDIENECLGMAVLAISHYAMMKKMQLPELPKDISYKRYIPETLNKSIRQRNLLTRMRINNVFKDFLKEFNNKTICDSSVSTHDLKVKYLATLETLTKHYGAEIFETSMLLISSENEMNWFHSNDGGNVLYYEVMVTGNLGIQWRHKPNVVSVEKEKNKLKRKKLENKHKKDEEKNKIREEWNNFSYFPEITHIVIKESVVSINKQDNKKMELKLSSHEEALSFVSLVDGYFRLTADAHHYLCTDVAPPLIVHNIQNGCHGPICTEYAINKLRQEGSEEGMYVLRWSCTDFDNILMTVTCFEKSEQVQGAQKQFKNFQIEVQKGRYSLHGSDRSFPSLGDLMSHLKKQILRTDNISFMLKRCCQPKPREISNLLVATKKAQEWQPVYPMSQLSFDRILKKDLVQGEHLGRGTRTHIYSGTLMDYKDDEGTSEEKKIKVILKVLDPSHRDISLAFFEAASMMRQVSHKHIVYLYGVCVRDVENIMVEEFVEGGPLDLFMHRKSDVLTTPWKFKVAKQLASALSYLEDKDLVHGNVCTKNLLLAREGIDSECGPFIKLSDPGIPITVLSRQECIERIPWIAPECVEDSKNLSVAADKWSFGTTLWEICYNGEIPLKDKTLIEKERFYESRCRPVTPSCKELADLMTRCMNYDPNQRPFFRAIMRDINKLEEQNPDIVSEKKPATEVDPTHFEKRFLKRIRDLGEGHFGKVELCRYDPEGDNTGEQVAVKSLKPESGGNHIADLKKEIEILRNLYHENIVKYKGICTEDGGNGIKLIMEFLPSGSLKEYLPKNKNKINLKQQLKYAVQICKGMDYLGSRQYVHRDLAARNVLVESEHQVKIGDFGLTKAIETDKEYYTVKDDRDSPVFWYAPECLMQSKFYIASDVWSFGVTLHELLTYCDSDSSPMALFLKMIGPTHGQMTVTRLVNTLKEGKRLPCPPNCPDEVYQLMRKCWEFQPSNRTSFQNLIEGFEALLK
Chain of Tyrosine-protein kinase JAK2 (O60674 whole entry): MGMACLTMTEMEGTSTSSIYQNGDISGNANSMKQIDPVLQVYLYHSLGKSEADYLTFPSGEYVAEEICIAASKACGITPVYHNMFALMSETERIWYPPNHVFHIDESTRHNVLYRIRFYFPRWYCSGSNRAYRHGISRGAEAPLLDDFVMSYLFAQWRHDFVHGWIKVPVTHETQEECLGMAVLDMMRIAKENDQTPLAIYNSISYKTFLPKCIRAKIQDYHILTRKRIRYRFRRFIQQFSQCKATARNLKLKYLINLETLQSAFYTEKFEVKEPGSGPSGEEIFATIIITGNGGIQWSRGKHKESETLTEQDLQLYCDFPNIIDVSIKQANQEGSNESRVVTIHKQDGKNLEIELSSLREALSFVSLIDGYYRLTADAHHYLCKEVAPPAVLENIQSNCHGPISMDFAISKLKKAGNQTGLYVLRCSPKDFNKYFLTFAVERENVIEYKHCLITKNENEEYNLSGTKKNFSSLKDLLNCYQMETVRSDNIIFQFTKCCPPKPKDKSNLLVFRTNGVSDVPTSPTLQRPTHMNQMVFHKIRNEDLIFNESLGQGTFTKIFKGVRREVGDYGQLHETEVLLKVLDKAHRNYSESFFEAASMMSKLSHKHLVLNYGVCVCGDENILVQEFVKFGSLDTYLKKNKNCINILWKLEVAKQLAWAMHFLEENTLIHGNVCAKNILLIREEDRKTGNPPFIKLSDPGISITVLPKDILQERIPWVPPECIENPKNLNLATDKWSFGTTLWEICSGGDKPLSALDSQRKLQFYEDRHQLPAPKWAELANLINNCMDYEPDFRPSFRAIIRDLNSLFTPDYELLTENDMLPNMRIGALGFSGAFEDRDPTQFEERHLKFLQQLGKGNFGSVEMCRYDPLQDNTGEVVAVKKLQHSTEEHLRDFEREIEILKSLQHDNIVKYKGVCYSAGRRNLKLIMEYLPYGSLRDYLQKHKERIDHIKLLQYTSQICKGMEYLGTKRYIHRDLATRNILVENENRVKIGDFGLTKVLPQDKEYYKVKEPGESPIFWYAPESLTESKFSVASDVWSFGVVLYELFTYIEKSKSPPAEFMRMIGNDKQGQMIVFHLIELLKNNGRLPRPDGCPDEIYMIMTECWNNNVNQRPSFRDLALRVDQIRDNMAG

Compound	Ki [1] [nM]	Ki [2] [nM]	IC50 [3] [nM]	also measured
Cn1cc(NC(=O)c2cnn3cccnc23)c(-c2cc(Cl)ccc2CO)n1	45	8.6	–	–
C#Cc1ccc2ncc(C(=O)Nc3c[nH]nc3-c3cc(Cl)ccc3OC(F)F)n2n1	–	0.078	13	–
Cn1ncc(NC(=O)c2cnn3cccnc23)c1-c1cc(Cl)ccc1Cl	39	3.5	> 1000	–
COc1c(F)cc(Cl)cc1-c1n[nH]cc1NC(=O)c1cnn2cccnc12	9.2	1.2	–	–
COc1cc(O)c(Cl)cc1-c1n[nH]cc1NC(=O)c1cnn2cccnc12	0.31	0.16	140	–
O=C(Nc1c[nH]nc1-c1cc(Cl)ccc1SC(F)F)c1cnn2cccnc12	0.85	0.23	26	–
CCOc1ccc(Cl)cc1-c1n[nH]cc1NC(=O)c1cnn2cccnc12	1.4	0.8	54	–
Cn1cc(NC(=O)c2cnn3cccnc23)c(-c2cc(Cl)ccc2CCO)n1	12	4	–	–
COc1ccc(Cl)cc1-c1n[nH]cc1NC(=O)c1cnn2cccnc12	0.89	0.36	23	–
O=C(Nc1c[nH]nc1-c1cc(Cl)ccc1OC1CC1)c1cnn2cccnc12	1.3	0.45	21	–
O=C(Nc1c[nH]nc1-c1cc(Cl)ccc1OC(F)F)c1cncc2c[nH]nc12	0.56	0.49	18	IC50 [4]: 1.9 nM; inhibition at 1 h, 0.1 µM [5]: 52%; Ratio IC50 [6]: 41; logD [7]: 2.7; CLint scaled at 1 µM [8]: 15 mL/min/kg; Papp A→B at 3 h, 10 µM [9]: 9.5 ×10⁻⁶ cm/s; efflux ratio at 3 h, 10 µM [10]: 1.9; IC50 [11]: 79 nM
O=C(Nc1c[nH]nc1-c1cc(Cl)ccc1OC(F)F)c1cncc2scnc12	0.51	0.17	9.2	–
CCn1c(C(=O)N(C2CC2)C2CC2)cc2c3c(ncn3C)c(Nc3cc(C)n(C)n3)nc21 [BMS-911543]	360	–	> 1000	Papp A→B at 3 h, 10 µM [9]: 16 ×10⁻⁶ cm/s; efflux ratio at 3 h, 10 µM [10]: 0.94
O=C(Nc1c[nH]nc1-c1cc(Cl)ccc1OC(F)F)c1cncc2ccoc12	1.8	0.5	36	–
O=C(Nc1c[nH]nc1-c1ccccc1OC(F)F)c1cnn2cccnc12	3.3	0.86	–	–
COc1ccc(Cl)cc1-c1nn(C)cc1NC(=O)c1cncc2c[nH]nc12	0.6	0.78	20	–
COc1cc(F)c(Cl)cc1-c1n[nH]cc1NC(=O)c1cnn2cccnc12	2.2	0.79	42	–
CC(C)Oc1ccc(Cl)cc1-c1nn(C)cc1NC(=O)c1cnn2cccnc12	7.9	2	–	–
COc1ccc(Cl)cc1-c1nn(C)cc1NC(=O)c1cncc2[nH]nnc12	370	730	–	–
COc1cc2[nH]ncc2cc1-c1n[nH]cc1NC(=O)c1cnn2cccnc12	–	–	370	–
COc1ccc(Cl)c(F)c1-c1n[nH]cc1NC(=O)c1cnn2cccnc12	0.95	0.29	15	–
Cc1nc(-c2cc(Cl)ccc2OC(F)F)c(NC(=O)c2cnn3cccnc23)[nH]1	3.9	1.1	–	–
Cn1cc(NC(=O)c2cnn3cccnc23)c(-c2cc(Cl)ccc2Cl)n1	–	–	–	logD [7]: 2.9; Papp A→B at 3 h, 10 µM [9]: 20 ×10⁻⁶ cm/s
O=C(Nc1c[nH]nc1-c1cc(F)ccc1OC(F)F)c1cnn2cccnc12	0.71	0.19	34	–
COc1ccc(Cl)cc1-c1nc(C)sc1NC(=O)c1cnn2cccnc12	0.99	0.45	58	–

Compound	Ki [1] [nM]	Ki [2] [nM]	IC50 [3] [nM]	also measured
COc1ccc(Cl)cc1-c1nn(C)cc1NC(=O)c1cncc2cccnc12	1.9	0.62	38	–
C[C@@H](O)c1nc2cnc3[nH]ccc3c2n1[C@H]1CCCOC1	2.9	–	210	Papp A→B at 3 h, 10 µM [9]: 6.2 ×10⁻⁶ cm/s; efflux ratio at 3 h, 10 µM [10]: 0.81
O=C(Nc1c[nH]nc1-c1cc2cn[nH]c2cc1OC(F)F)c1cnn2cccnc12	0.075	0.052	40	inhibition at 1 h, 0.1 µM [5]: 89%; logD [7]: 1.6; CLint scaled at 1 µM [8]: 4.4 mL/min/kg; Papp A→B at 3 h, 10 µM [9]: 1.6 ×10⁻⁶ cm/s; efflux ratio at 3 h, 10 µM [10]: 1
CC[C@@H]1CN(C(=O)NCC(F)(F)F)C[C@@H]1c1cnc2cnc3[nH]ccc3n12 [UPADACITINIB]	–	–	–	Papp A→B at 3 h, 10 µM [9]: 3.6 ×10⁻⁶ cm/s
O=C(Nc1c[nH]nc1-c1c(OC(F)F)ccc(Cl)c1F)c1cnn2cccnc12	0.56	0.16	14	–
Cc1cc(Nc2nccc3nc(-c4c(Cl)cc(C#N)cc4Cl)[nH]c23)ncn1	23	–	1300	Papp A→B at 3 h, 10 µM [9]: 16 ×10⁻⁶ cm/s; efflux ratio at 3 h, 10 µM [10]: 0.81
Cn1cc(NC(=O)c2cnn3cccnc23)c(-c2cc(Cl)ccc2C2CC2)n1	0.91	0.28	–	–
Cn1cc(NC(=O)c2cnn3cccnc23)c(-c2cc(Cl)ccc2O)n1	32	13	–	–
Cc1ccn2ncc(C(=O)Nc3c[nH]nc3-c3cc(Cl)ccc3OC(F)F)c2n1	0.99	0.1	34	–
O=C(Nc1c[nH]nc1-c1cc(Br)ccc1OC(F)F)c1cnn2cccnc12	0.12	0.047	3.3	inhibition at 1 h, 0.1 µM [5]: 86%; logD [7]: 3.2; CLint scaled at 1 µM [8]: 15 mL/min/kg; Papp A→B at 3 h, 10 µM [9]: 17 ×10⁻⁶ cm/s; efflux ratio at 3 h, 10 µM [10]: 1.2
N#Cc1ccc(OC(F)F)c(-c2n[nH]cc2NC(=O)c2cnn3cccnc23)c1	0.9	0.27	22	–
O=C(Nc1c[nH]nc1-c1cc(Cl)ccc1OC(F)(F)F)c1cnn2cccnc12	2.1	0.49	64	–
COc1ccc(Cl)cc1-c1nn(C)cc1NC(=O)c1cncc2[nH]cnc12	5.7	2.6	–	–
O=C(Nc1c[nH]nc1-c1cc(Cl)c(O)cc1OC(F)F)c1cnn2cccnc12	0.11	0.057	36	–
Cc1ccc(OC(F)F)c(-c2n[nH]cc2NC(=O)c2cnn3cccnc23)c1	1.4	0.34	27	–
O=C(Nc1c[nH]nc1-c1cc(Cl)ccc1OC(F)F)c1cnn2cc(F)cnc12	7.8	2.4	–	–
O=C(Nc1c[nH]nc1-c1cc(I)ccc1OC(F)F)c1cnn2cccnc12	0.15	0.045	2.8	inhibition at 1 h, 0.1 µM [5]: 91%; logD [7]: 3.4; CLint scaled at 1 µM [8]: 15 mL/min/kg; Papp A→B at 3 h, 10 µM [9]: 15 ×10⁻⁶ cm/s; efflux ratio at 3 h, 10 µM [10]: 1
CSc1ccc(Cl)cc1-c1nn(C)cc1NC(=O)c1cnn2cccnc12	0.46	0.23	11	–
Nc1nn2cccnc2c1C(=O)Nc1c[nH]nc1-c1cc(Cl)ccc1OC(F)F	0.19	0.042	4	inhibition at 1 h, 0.1 µM [5]: 99%; logD [7]: 3.3; CLint scaled at 1 µM [8]: 11 mL/min/kg; Papp A→B at 3 h, 10 µM [9]: 15 ×10⁻⁶ cm/s; efflux ratio at 3 h, 10 µM [10]: 0.83
O=C(Nc1c[nH]nc1-c1cc(Cl)ccc1OC(F)F)c1cnc2cccnn12	0.21	0.071	5	–
O=C(Nc1c[nH]nc1-c1cc(Cl)ccc1OC(F)F)c1snc2cccnc12	0.47	0.085	20	–
O=C(Nc1c[nH]nc1-c1cc(Cl)ccc1OC(F)F)c1cnc2[nH]ccc2n1	5.6	0.96	42	–
CCc1ccc(OC(F)F)c(-c2n[nH]cc2NC(=O)c2cnn3cccnc23)c1	0.53	0.19	13	–
COc1ccc(Cl)cc1-c1nn(C)cc1NC(=O)c1cncc2cn(C)nc12	4.3	4.7	93	–
